Laboratory results: paper PMC2949700, “Identification of the full set of Listeria monocytogenes penicillin-binding proteins and characterization of PBPD2 (Lmo2812)” (BMC Microbiology, 2010)
Values after ≈ are worked out from the molar mass of the structure shown. Marks after values point to notes of the source that are not given here.

Columns and labels:
L. monocytogenes EGD = assay: Microdilution MIC test; assay type: cell-based, Listeria monocytogenes; conditions: Listeria monocytogenes
Method: (§1) To determine the effect of these mutations on cell morphology, the strains EGD, KD2812 and DA07 were analyzed by scanning electron microscopy (SEM). […] At 30°C the average cell length compared to strain EGD was increased by 38.5% in strain KD2812 and by 44.8% in the double mutant strain. The respective values at 37°C were 37.5% and 43%. […] The variant cells were characteristically curved with a bend at either one or both ends and subterminal constrictions. The number of cells with altered morphology was increased as the growth temperature was raised (Figure 3; b, e, h). Cell bending was more pronounced in the population of AD07 mutant cells (Figure 3; c, f, i). […] Similar results were found for a mutant of L. monocytogenes lacking PBP5 (PBPD1) examined in a previous study.
(§2) Microdilution tests were performed using cation-adjusted Mueller-Hinton broth (CAMHB) supplemented with 5% lysed horse blood containing two-fold dilutions of the antimicrobial agents. These mixtures were dispensed in 100 μl aliquots into plastic 96-well plates. To prepare inocula, a single colony of each strain from a TSBYE plate was transferred into 10 ml of the same medium and incubated for 24 h at 37°C. These cultures were serially diluted in CAMHB to a concentration of 10^5 cfu/ml and 100 μl aliquots were added to the microdilution plates. The plates were incubated for 18-20 h at 37°C before the reading of the MIC endpoints. The MIC was the lowest antibiotic concentration at which visible growth was inhibited.

[1] = tested on: L. monocytogenes KD2812 (Δlmo2812); assay: Microdilution MIC test; assay type: cell-based, Listeria monocytogenes; conditions: Listeria monocytogenes
Method: as §1, §2

[2] = tested on: L. monocytogenes AD07 (Δlmo2812 Δlmo2754); assay: Microdilution MIC test; assay type: cell-based, Listeria monocytogenes; conditions: Listeria monocytogenes
Method: as §1, §2

PBPA2 (PBP4) [3] = target: T1, PBPA2 (PBP4) (Listeria monocytogenes, UniProt Q8Y547); assay: Competition binding assay (ampicillin preincubation, then Boc-FL), whole cells
T1 sequence (Q8Y547 entry or part of it): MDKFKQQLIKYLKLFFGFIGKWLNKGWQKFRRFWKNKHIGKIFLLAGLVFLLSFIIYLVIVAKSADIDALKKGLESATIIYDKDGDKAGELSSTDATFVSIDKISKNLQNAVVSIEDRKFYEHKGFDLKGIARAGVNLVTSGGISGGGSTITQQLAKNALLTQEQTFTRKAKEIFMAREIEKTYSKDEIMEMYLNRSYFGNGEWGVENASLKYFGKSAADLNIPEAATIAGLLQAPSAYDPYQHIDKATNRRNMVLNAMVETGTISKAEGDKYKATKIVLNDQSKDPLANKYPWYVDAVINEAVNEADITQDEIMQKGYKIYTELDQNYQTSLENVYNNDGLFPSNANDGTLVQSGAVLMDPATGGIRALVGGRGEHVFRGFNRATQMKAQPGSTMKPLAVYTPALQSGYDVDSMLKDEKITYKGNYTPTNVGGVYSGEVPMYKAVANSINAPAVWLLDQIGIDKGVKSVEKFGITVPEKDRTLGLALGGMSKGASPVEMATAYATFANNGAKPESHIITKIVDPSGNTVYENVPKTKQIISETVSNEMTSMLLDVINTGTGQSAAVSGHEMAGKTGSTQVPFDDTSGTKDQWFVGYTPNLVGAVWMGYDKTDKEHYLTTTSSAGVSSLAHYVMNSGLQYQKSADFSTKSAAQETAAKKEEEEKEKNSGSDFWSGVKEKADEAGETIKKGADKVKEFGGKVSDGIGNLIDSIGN
Method: (§3) PBPs form a covalent complex with β-lactam antibiotics. When fluorescent β-lactams are employed, these proteins can be visualized immediately following SDS-PAGE [17]. Total protein from whole cells or a cell wall extract of L. monocytogenes EGD were incubated with different concentrations of Boc-FL, Bocillin-650 (Boc-650) or Ampicillin-Alexa430 (Amp-430) for 30 min at 37°C. The highest affinity binding was obtained with Boc-FL and bands identified using this compound in the whole cell assay are shown in Figure 1. PBPs A1, B2, B1, A2, B3, D1, C1 and C2 were also identified with Boc-650 and Amp-430 (data not shown). Two types of non-specific band were also observed (lane 1, 0 μM Boc-FL) and they represent the natural intrinsic fluorescence of other proteins in the cell extract. However, the bands that are absent in lane 8 (ampicillin 100 μg/ml, 50 μM Boc-FL) compared with lane 7 (50 μM Boc-FL) represent specific PBPs. Those bands that completely disappeared (PBPB1, PBPD1), partially disappeared (PBPA1, PBPB2, PBPA2 and PBPB3) or remained present (PBPC1 and PBPC2) reflect total, partial and no binding of ampicillin, respectively. The results of an experiment examining saturation with 50 μM Boc-FL, the binding capacity of each PBP for Boc-FL and the affinity of the PBPs for ampicillin (Amp) are presented in Table 2. These assays involved incubation of whole cell with ampicillin followed by a similar incubation with Boc-FL. Therefore, only those PBPs with no or low affinity for ampicillin would be able to bind Boc-FL during the second incubation. The deacylation rate for the PBPs is actually extremely low, which permitted their detection in the gel for several hours after binding.
(§4) Figure 1 Complete set of PBPs identified with Boc-FL in whole cells of L. monocytogenes. Samples of whole cells (100 μg of total protein) were labeled with Boc-FL at concentrations of 0 (1), 0.5 (2), 1 (3), 2.5 (4), 5 (5), 10 (6), 50 μM (7) and 50 μM plus 100 μg/ml ampicillin (8). Labeled bands were detected directly on the gel, quantified, and their molecular mass estimated. The affinity of each band for Boc-FL (ID50) was estimated from their fluorescence as a function of the concentration of Boc-FL. The name of the PBP corresponding to each band is indicated on the right, while the positions of molecular weight markers (bars) and unspecific bands (arrowheads) are shown on the left.
(§5) Total whole cell proteins or purified recombinant protein resuspended in 50 mM NaPi buffer, pH 7.0 were labeled by incubation at 37°C for 30 min with different concentrations of Boc-FL (Molecular Probes), Boc-650 (Molecular Probes) or Amp-430 (prepared in the laboratory by coupling ampicillin to Alexa-430), and then separated on a 10% acrylamide, 3.3% cross-linkage SDS-PAGE gel. To avoid degradation of the fluorescent β-lactam antibiotics by β-lactamases, samples were incubated at 37°C with clavulanic acid at a final concentration of 10 μg/ml or EDTA at a final concentration of 10 mM for 30 min before labeling, where appropriate. Competition experiments were carried out by preincubation of the samples with ampicillin (100 μg/ml) for 30 min at 37°C, before adding the fluorescent antibiotic. The samples were then further incubated for 30 min at 37°C. PBPs were visualized directly on the polyacryloamide gel by fluorescence using a Typhoon 9410 imager (Amersham Biosciences) with excitation wavelengths of 588, 633 or 457 nm and emission filters 520BP40, 670BP30 or 555BP20 for Boc-FL, Boc-650 and Amp-430, respectively.

PBPC2 = PBPC2 (Listeria monocytogenes, UniProt Q8Y5Y7); assay: as above
Method: as §3, §4, §5

PBPC1 = PBPC1 (Listeria monocytogenes, UniProt Q8Y9I8); assay: as above
Chain of PBPC1 (Q8Y9I8 entry or part of it): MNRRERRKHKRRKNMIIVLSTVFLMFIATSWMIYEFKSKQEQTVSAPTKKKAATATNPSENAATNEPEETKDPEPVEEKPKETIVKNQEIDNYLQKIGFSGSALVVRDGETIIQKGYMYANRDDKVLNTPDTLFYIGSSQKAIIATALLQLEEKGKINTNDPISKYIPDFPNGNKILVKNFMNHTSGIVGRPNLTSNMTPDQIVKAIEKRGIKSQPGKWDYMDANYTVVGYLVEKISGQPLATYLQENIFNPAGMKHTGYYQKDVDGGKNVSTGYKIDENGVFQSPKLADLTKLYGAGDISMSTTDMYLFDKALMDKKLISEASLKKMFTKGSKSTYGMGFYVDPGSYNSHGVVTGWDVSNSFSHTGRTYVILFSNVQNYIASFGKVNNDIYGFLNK
Method: as §3, §4, §5

PBPB2 (PBP2) [4] = target: T2, PBPB2 (PBP2) (Listeria monocytogenes, UniProt Q8Y5L8); assay: as above
T2 sequence (Q8Y5L8 entry or part of it): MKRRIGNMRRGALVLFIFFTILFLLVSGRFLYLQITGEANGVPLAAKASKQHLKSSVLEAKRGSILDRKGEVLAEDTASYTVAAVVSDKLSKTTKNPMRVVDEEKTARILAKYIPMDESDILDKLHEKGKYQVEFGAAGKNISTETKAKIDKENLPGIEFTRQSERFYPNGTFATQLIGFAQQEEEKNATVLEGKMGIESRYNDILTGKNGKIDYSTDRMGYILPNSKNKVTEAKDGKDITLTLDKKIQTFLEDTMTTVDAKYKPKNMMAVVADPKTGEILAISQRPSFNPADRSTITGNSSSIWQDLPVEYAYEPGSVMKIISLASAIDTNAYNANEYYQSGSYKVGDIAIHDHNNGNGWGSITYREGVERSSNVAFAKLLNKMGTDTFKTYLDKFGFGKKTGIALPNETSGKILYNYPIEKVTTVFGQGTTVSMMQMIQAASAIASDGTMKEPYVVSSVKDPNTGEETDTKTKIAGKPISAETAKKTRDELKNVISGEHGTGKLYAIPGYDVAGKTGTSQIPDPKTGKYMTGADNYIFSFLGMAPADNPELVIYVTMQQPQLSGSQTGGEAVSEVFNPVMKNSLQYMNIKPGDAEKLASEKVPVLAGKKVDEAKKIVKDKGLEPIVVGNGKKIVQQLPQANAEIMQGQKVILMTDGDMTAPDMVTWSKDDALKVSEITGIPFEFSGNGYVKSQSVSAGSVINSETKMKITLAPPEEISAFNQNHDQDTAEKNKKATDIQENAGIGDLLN
Method: as §3, §4, §5

PBPD1 (PBP5) [5] = target: T3, PBPD1 (PBP5) (Listeria monocytogenes, UniProt Q8Y3S7); assay: as above
T3 sequence (Q8Y3S7 entry or part of it): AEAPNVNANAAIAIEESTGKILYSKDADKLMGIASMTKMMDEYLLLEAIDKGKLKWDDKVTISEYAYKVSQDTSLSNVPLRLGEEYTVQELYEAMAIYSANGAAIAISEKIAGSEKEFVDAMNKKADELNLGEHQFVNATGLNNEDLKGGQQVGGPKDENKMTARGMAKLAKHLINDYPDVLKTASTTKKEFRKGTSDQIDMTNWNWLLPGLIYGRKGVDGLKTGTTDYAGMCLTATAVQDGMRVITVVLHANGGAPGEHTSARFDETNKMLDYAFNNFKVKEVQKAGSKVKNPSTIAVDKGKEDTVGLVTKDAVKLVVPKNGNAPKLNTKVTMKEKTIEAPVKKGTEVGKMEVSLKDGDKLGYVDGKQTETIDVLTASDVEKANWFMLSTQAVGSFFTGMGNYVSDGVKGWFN
Method: as §3, §4, §5

PBPB1 (PBP3) [6] = target: T4, PBPB1 (PBP3) (Listeria monocytogenes, UniProt Q8Y763); assay: as above
T4 sequence (Q8Y763 entry or part of it): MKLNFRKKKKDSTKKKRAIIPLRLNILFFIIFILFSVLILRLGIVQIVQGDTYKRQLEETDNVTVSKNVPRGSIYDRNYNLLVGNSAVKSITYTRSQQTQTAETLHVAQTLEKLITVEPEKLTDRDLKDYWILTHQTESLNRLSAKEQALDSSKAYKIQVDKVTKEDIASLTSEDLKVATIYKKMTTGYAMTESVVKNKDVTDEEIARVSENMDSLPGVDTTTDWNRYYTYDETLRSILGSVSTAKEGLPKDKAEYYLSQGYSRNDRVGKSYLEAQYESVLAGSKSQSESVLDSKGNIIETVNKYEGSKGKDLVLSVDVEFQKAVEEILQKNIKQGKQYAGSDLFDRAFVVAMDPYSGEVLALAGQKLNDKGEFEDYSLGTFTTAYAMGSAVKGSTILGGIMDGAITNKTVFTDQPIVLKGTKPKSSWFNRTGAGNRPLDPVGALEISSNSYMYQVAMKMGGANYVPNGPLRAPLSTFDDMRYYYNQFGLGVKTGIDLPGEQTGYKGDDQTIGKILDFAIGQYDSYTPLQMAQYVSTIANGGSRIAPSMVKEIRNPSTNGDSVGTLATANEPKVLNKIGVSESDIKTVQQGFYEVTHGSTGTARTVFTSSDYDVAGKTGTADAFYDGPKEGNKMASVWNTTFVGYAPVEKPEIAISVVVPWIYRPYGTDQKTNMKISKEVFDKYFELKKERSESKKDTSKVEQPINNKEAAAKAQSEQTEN
Method: as §3, §4, §5

PBPA1 (PBP1) [7] = target: T5, PBPA1 (PBP1) (Listeria monocytogenes, UniProt Q8Y610); assay: as above
T5 sequence (Q8Y610 entry or part of it): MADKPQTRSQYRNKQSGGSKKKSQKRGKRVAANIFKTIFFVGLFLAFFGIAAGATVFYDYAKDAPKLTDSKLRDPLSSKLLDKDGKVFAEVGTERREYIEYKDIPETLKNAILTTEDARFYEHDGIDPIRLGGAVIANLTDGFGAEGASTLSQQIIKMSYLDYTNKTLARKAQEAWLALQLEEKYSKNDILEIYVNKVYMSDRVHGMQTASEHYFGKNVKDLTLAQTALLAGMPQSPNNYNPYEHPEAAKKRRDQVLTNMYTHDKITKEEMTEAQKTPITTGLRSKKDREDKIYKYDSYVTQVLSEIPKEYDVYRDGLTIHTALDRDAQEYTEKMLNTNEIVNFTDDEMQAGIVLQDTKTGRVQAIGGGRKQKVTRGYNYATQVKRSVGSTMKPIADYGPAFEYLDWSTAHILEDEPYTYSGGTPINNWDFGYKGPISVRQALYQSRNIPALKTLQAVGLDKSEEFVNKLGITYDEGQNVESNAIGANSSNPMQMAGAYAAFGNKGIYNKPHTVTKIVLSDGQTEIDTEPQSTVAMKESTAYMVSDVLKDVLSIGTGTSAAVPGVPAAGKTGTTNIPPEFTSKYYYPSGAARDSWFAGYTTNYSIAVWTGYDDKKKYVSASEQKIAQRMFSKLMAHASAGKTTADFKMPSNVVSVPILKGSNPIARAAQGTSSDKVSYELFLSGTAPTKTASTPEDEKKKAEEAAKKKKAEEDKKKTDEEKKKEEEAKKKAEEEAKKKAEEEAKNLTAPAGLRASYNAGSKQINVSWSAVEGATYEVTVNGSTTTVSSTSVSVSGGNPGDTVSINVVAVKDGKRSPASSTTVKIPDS
Method: as §3, §4, §5

PBPB3 = PBPB3 (Listeria monocytogenes, UniProt Q8Y9T2); assay: as above
Chain of PBPB3 (Q8Y9T2 entry or part of it): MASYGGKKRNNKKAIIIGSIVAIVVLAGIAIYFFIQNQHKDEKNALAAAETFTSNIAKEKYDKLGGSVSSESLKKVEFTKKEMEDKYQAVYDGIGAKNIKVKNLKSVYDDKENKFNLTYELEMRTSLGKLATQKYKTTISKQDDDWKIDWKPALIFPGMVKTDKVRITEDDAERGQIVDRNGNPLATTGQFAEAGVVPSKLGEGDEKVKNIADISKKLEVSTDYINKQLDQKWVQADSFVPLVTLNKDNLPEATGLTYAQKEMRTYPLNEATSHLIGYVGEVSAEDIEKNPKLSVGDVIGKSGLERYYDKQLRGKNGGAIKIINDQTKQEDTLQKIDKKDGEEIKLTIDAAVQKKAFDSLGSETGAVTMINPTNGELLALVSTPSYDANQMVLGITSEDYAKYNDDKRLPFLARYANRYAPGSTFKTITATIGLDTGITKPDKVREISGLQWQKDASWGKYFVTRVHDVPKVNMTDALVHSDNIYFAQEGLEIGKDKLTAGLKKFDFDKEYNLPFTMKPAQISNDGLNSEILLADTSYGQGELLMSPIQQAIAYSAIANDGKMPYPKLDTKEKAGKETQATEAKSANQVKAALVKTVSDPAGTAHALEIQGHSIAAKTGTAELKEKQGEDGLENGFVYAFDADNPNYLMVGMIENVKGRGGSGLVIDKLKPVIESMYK
Method: as §3, §4, §5

[8] = target: T6, purified recombinant Lmo2812 (PBPD2) (Listeria monocytogenes, UniProt Q8Y3M3); assay: Competition binding assay (ampicillin preincubation, then Boc-FL), purified recombinant protein; conditions: purified recombinant Lmo2812 preincubated with 100 μg/ml ampicillin
T6 sequence (Q8Y3M3 entry or part of it): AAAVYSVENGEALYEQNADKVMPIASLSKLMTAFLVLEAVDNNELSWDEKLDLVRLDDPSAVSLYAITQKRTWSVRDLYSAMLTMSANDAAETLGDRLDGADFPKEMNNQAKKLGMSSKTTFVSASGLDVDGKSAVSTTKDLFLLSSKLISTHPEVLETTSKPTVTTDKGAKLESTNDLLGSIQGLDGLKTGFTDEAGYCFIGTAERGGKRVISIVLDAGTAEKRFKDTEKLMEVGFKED
Method: as §5

PBPA2 (PBP4) [9] = target: T1, PBPA2 (PBP4); assay: Fluorescent antibiotic binding assay, whole cells; conditions: read-out: Boc-FL Kd50, 30 min at 37°C, estimated from band fluorescence as a function of Boc-FL concentration
Method: as §3, §4
as §5, with “The samples were then further incubated for 30 min at 37°C.” left out

PBPB2 (PBP2) [10] = target: T2, PBPB2 (PBP2); assay: Fluorescent antibiotic binding assay, whole cells; conditions: read-out: Boc-FL Kd50, 30 min at 37°C, estimated from band fluorescence as a function of Boc-FL concentration
Method: as §3, §4
as §5, with “The samples were then further incubated for 30 min at 37°C.” left out

PBPD1 (PBP5) [11] = target: T3, PBPD1 (PBP5); assay: Fluorescent antibiotic binding assay, whole cells; conditions: read-out: Boc-FL Kd50, 30 min at 37°C, estimated from band fluorescence as a function of Boc-FL concentration
Method: as §3, §4
as §5, with “The samples were then further incubated for 30 min at 37°C.” left out

PBPB1 (PBP3) [12] = target: T4, PBPB1 (PBP3); assay: Fluorescent antibiotic binding assay, whole cells; conditions: read-out: Boc-FL Kd50, 30 min at 37°C, estimated from band fluorescence as a function of Boc-FL concentration
Method: as §3, §4
as §5, with “The samples were then further incubated for 30 min at 37°C.” left out

PBPA1 (PBP1) [13] = target: T5, PBPA1 (PBP1); assay: Fluorescent antibiotic binding assay, whole cells; conditions: read-out: Boc-FL Kd50, 30 min at 37°C, estimated from band fluorescence as a function of Boc-FL concentration
Method: as §3, §4
as §5, with “The samples were then further incubated for 30 min at 37°C.” left out

[14] = target: T6, purified recombinant Lmo2812 (PBPD2); assay: Fluorescent antibiotic binding assay, purified recombinant protein
Method: The purified protein was incubated with different concentrations of Boc-FL (0.25, 0.5, 2.5, 5 and 10 μM). […] Lmo2812 was the major band on gels, with a slower migrating minor band thought to represent a dimeric form (Figure 2).
Figure 2 Purified recombinant L. monocytogenes Lmo2812 (PBPD2) identified with Boc-FL. Samples of purified recombinant Lmo2812 (10 μg) were labeled with Boc-FL at concentrations of 0 (1), 0.25 (2), 0.5 (3), 2.5 (4), 5 (5) and 10 μM (6). Labeled bands were detected directly on the gel, quantified and their molecular mass estimated. The affinity of the bands for Boc-FL (Kd50) was estimated from their fluorescence as a function of the concentration of Boc-FL. The names of the bands are indicated on the right, and the positions of the molecular weight markers are shown on the left.
The β-lactam binding capacity of Lmo2812 was evaluated with three different fluorescent antibiotics: Boc-FL, Boc-650 and Amp-430.
as §5, with “respectively. […]” for “respectively.”

[15] = ampicillin 100 μg/ml, 50 μM Boc-FL, Figure 1 lane 8 vs lane 7
[16] = preincubated with 100 μg/ml ampicillin, then 50 μM Boc-FL

For `CC1(C)S[C@@H]2[C@H](NC(=O)[C@H](N)c3ccccc3)C(=O)N2[C@H]1C(=O)O` [ampicillin], the MIC (L. monocytogenes EGD) was 0.31 µg/mL (≈ 0.887 µM), the MIC [1] was 0.31 µg/mL (≈ 0.887 µM) and the MIC [2] was 0.16 µg/mL (≈ 0.458 µM). For the same molecule, the “binding of ampicillin (disappearance of Boc-FL band)” value (“binding of ampicillin” for short) (PBPA2 (PBP4) [3]; [15]) was “partial”, the “percentage of Boc-FL binding capacity remaining” value (PBPA2 (PBP4) [3]; [16]) was 90% and the “binding of ampicillin” value (PBPC2; [15]) was “no binding”. For the same molecule, the “percentage of Boc-FL binding capacity remaining” value (PBPC2; [16]) was 100%, the “binding of ampicillin” value (PBPC1; [15]) was “no binding” and the “percentage of Boc-FL binding capacity remaining” value (PBPC1; [16]) was 100%. For the same molecule, the “binding of ampicillin” value (PBPB2 (PBP2) [4]; [15]) was “partial”, the “percentage of Boc-FL binding capacity remaining” value (PBPB2 (PBP2) [4]; [16]) was 90% and the “inhibition of Boc-FL binding” value (PBPD1 (PBP5) [5]; Amp at 100 μg/ml) was “completely inhibited”. For the same molecule, the “binding of ampicillin” value (PBPD1 (PBP5) [5]; [15]) was “total”, the “percentage of Boc-FL binding capacity remaining” value (PBPD1 (PBP5) [5]; [16]) was 0% and the “inhibition of Boc-FL binding” value (PBPB1 (PBP3) [6]; Amp at 100 μg/ml) was “completely inhibited”. For the same molecule, the “binding of ampicillin” value (PBPB1 (PBP3) [6]; [15]) was “total”, the “percentage of Boc-FL binding capacity remaining” value (PBPB1 (PBP3) [6]; [16]) was 0% and the “binding of ampicillin” value (PBPA1 (PBP1) [7]; [15]) was “partial”. For the same molecule, the “percentage of Boc-FL binding capacity remaining” value (PBPA1 (PBP1) [7]; [16]) was 95%, the “binding of ampicillin” value (PBPB3; [15]) was “partial” and the “percentage of Boc-FL binding capacity remaining” value (PBPB3; [16]) was 95%. For the same molecule, the “percentage of Boc-FL binding capacity remaining” value [8] was 0^b %.

`Cc1cc(C)n2c1C=C1C=CC(CCC(=O)Nc3ccc(OCC(=O)N[C@@H]4C(=O)N5[C@@H]4SC(C)(C)[C@@H]5C(=O)O)cc3)=[N+]1[B-]2(F)F` [Boc-FL, Bocillin-FL] was tested, and the Kd (PBPA2 (PBP4) [9]) was 250 nM, the Kd (PBPB2 (PBP2) [10]) was 250 nM and the Kd (PBPD1 (PBP5) [11]) was 5000 nM. It also gave a Kd (PBPB1 (PBP3) [12]) of 250 nM, a Kd (PBPA1 (PBP1) [13]) greater than 10000 nM and a Kd [14] of 2500 nM.
